# Experimental data taken from patent US20100029654A1, “CARDIOVASCULAR COMPOSITIONS AND USE OF THE SAME FOR THE TREATMENT OF ALZHEIMER'S DISEASE” (MOUNT SINAI SCHOOL OF MEDICINE, priority 2006, published 2010).
# Structures can show the parent of a compound that is named as a salt. Where two headings read alike, the source gives them in different places.
# What was measured:
# Aβ1-40 = Aβ1-40 content in conditioned medium of primary cortico-hippocampal neuron cultures from Tg2576 mice (ELISA; primary and secondary dose-response screening); assay type: cell-based, mouse; conditions: for activity at 100 µM: Mus musculus, Neuron, 24 h, read-out: Ab1-40 (% of ctl); for activity at 100 µM / Ab1-40 (% of ctl): drug 100 μM; for reduced Aβ1-40: <85% of ctl
# Experimental: (§1) Potential Aβ-lowering activity was assessed for 150 commercially available cardiovascular drugs using primary cortico-hippocampal neuron cultures derived from embryonic Tg2576 (El 6). […] All cardiovascular reagents were obtained from MicroSource Discovery Systems Inc (Gaylordsville, Conn.). […] Individual cardiovascular agents were applied directly to the culture medium (final 1% DMSO in the culture media). In control studies, parallel Tg2576 primary neuron cultures were treated with vehicle (1% DMSO) alone. The influence of drug treatments in Aβ content in the conditioned medium in treated cultures was assessed by assessing steady state levels of Aβ1-40 and Aβ1-42 in the culture media 24 hours after treatment.
# (§2) Embryonic brain tissue was mechanically triturated and centrifuged. Neurons were seeded onto poly-D-lysine-coated 96-well plates at 1.0×10^5 cells per well and cultured in the serum-free chemically-defined medium Neurobasal, supplemented with 2% B27, 0.5 mM L-glutamine and 1% penicillin-streptomycin (Gibco-BRL).
# (§3) For primary screening, cultured neurons were treated with 100 μM of drug in duplicates for 16 hours; all drugs were obtained in stock from MicroSource Discovery Systems Inc (Gaylordsville, Conn.). Conditioned medium was collected for Aβ detection using commercially available ELISA kits (BioSource). […] Primary neurons prepared in 96-well plates were treated with 0.1 μM, 1 μM, 10 μM, 50 μM, and 100 μM of each drug in duplicate for ˜16 hours and conditioned medium was collected for Aβ detection.
# Aβ1-42 = Aβ1-42 content in conditioned medium of primary cortico-hippocampal neuron cultures from Tg2576 mice (ELISA; primary and secondary dose-response screening); assay type: cell-based, mouse; conditions: for activity at 100 µM: Mus musculus, Neuron, 24 h, read-out: Ab1-42 (% of ctl); for activity at 100 µM / Ab1-42 (% of ctl): drug 100 μM; for reducing Aβ1-42: <85% of ctl
# Experimental: as §1, §2, §3
# [1] = test system: primary cortico-hippocampal neuron cultures; assay: MTT in primary screening
# [2] = test system: primary cortico-hippocampal neuron cultures; assay: lactate dehydrogenase (LDH) activity assay in parallel neuron cultures
# Experimental: For in vitro treatments drugs available from “The Spectrum Collection” in stocks of 10 mM in DMSO were applied directly to cultures to the desired concentrations (final 1% DMSO); control primary neuron cultures from Tg2576 embryos were treated with vehicle resulting in a final 1% DMSO.
# Cell viability was assessed using a commercial available LDH assay kit according to the manufacture's instruction (Promega).
# [3] = Primary Screening, table sorted by Aβ1-40
# [4] = primary screening, Tg2576 neuron cultures, table sorted by Aβ1-42
# [5] = primary screening, table sorted by Aβ1-42
"MTT (% of ctl) [1, 3]","MTT (% of ctl) [1, 5]","LDH (% of ctl) [2, 3]","LDH (% of ctl) [2, 5]",LDH at E-5M % of change ([2]; drug at E-5M) [%],SMILES,activity at 100 µM (Aβ1-40; [3]) [%],activity at 100 µM (Aβ1-40; [4]) [%],activity at 100 µM (Aβ1-42; [3]) [%],activity at 100 µM (Aβ1-42; [4]) [%],reduced Aβ1-40 (Aβ1-40; primary screening),reducing Aβ1-42 (Aβ1-42; primary screening),Ab1-40 (% of ctl) (Aβ1-40; [3]),Ab1-40 (% of ctl) (Aβ1-40; [4]),Ab1-42 (% of ctl) (Aβ1-42; [3]),Ab1-42 (% of ctl) (Aβ1-42; [4])
115.0 % of ctl,115.0 % of ctl,111.1 % of ctl,111.1 % of ctl,,COc1cc([S+](C)[O-])ccc1-c1nc2ncccc2[nH]1 (stereo not shown) [Sulmazole],116,116,93.2,93.2,,,,,,
97.5 % of ctl,97.5 % of ctl,112.5 % of ctl,112.5 % of ctl,,c1ccc(CC2=NCCN2)cc1 [Tolazoline Hydrochloride],90.8,90.8,99.6,99.6,,,,,,
94.7 % of ctl,94.7 % of ctl,107.5 % of ctl,107.5 % of ctl,,COCCc1ccc(OCC(O)CNC(C)C)cc1 (stereo not shown) [Metoprolol Tartrate],91.4,91.4,104,104,,,,,,
99.4 % of ctl,99.4 % of ctl,107.6 % of ctl,107.6 % of ctl,,CCCC(=O)Nc1ccc(OCC(O)CNC(C)C)c(C(C)=O)c1 (stereo not shown) [Acebutolol Hydrochloride],134,134,165,165,,,,,,
103.4 % of ctl,103.4 % of ctl,97.1 % of ctl,97.1 % of ctl,,COc1ccccc1N1CCN(CCCNc2cc(=O)n(C)c(=O)n2C)CC1 [Urapidil],96.4,96.4,114,114,,,,,,
101.0 % of ctl,101.0 % of ctl,98.2 % of ctl,98.2 % of ctl,,NS(=O)(=O)c1cc(C(=O)O)c(NCc2ccco2)cc1Cl [Furosemide],118,118,95.7,95.7,,,,,,
91.8 % of ctl,91.8 % of ctl,95.4 % of ctl,95.4 % of ctl,,COc1cc2nc(N(C)CCCNC(=O)C3CCCO3)nc(N)c2cc1OC (stereo not shown) [Alfluzosin],,,,,,useful in reducing Aβ1-42,122.7 % of ctl,122.7 % of ctl,66.9 % of ctl,66.9 % of ctl
90.7 % of ctl,90.7 % of ctl,90.7 % of ctl,90.7 % of ctl,,CCCc1nc(C(C)(C)O)c(C(=O)OCc2oc(=O)oc2C)n1Cc1ccc(-c2ccccc2-c2nnn[nH]2)cc1 [Olmesartan Medoxomil],83.9,83.9,70.7,70.7,reduced Aβ1-40,useful in reducing Aβ1-42,,,,
88.8 % of ctl,88.8 % of ctl,108.9 % of ctl,108.9 % of ctl,,CC(C)NCC(O)c1ccc2ccccc2c1 (stereo not shown) [Pronetalol Hydrochloride],88,88,94.6,94.6,,,,,,
87.7 % of ctl,87.7 % of ctl,111.3 % of ctl,111.3 % of ctl,,CCOC(=O)C1=C[C@]2(CC)CCCN3CCc4c(n1c1ccccc41)[C@@H]32 [Vinpocetine],60.4,60.4,105,105,reduced Aβ1-40,,,,,
99.2 % of ctl,99.2 % of ctl,99.9 % of ctl,99.9 % of ctl,,C[C@@H]1CCC[C@H](C)N1NC(=O)c1ccc(Cl)c(S(N)(=O)=O)c1 [Clopamide],92,92,98.9,98.9,,,,,,
,,,,1.9,CCCCc1oc2ccccc2c1C(=O)c1cc(I)c(OCCN(CC)CC)c(I)c1 [Amiodarone Hydrochloride],14.9,14.9,23.2,23.2,reduced Aβ1-40,useful in reducing Aβ1-42,,,,
96.7 % of ctl,96.7 % of ctl,130.8 % of ctl,130.8 % of ctl,,NC(N)=O [Urea],,,,,,,,,104.9 % of ctl,104.9 % of ctl

# More lines, now with the values behind:
SMILES,"MTT (% of ctl) [1, 3]","MTT (% of ctl) [1, 5]","LDH (% of ctl) [2, 3]","LDH (% of ctl) [2, 5]",LDH at E-5M % of change ([2]; drug at E-5M) [%],activity at 100 µM (Aβ1-40; [3]) [%],activity at 100 µM (Aβ1-40; [4]) [%],activity at 100 µM (Aβ1-42; [3]) [%],activity at 100 µM (Aβ1-42; [4]) [%],reduced Aβ1-40 (Aβ1-40; primary screening),reducing Aβ1-42 (Aβ1-42; primary screening),Ab1-40 (% of ctl) (Aβ1-40; [3]),Ab1-40 (% of ctl) (Aβ1-40; [4]),Ab1-42 (% of ctl) (Aβ1-42; [3]),Ab1-42 (% of ctl) (Aβ1-42; [4])
CC(C)c1nc(N(C)S(C)(=O)=O)nc(-c2ccc(F)cc2)c1/C=C/[C@@H](O)C[C@@H](O)CC(=O)O [Rosuvastatin],103.8 % of ctl,103.8 % of ctl,298.7 % of ctl,298.7 % of ctl,,83.6,83.6,65.6,65.6,reduced Aβ1-40,useful in reducing Aβ1-42,,,,
CCOC(=O)[C@H](CCc1ccccc1)N[C@@H](C)C(=O)N1[C@H](C(=O)O)C[C@H]2CCCC[C@@H]21 [Trandolapril],91.5 % of ctl,91.5 % of ctl,95.5 % of ctl,95.5 % of ctl,,137,137,111,111,,,,,,
CC(=O)Nc1nnc(S(N)(=O)=O)s1 [Acetazolamide],78.0 % of ctl,78.0 % of ctl,173.5 % of ctl,173.5 % of ctl,,115,115,118,118,,,,,,
CCN(CC)CCNC(=O)c1ccc(N)cc1 [Procainamide Hydrochloride],96.8 % of ctl,96.8 % of ctl,111.1 % of ctl,111.1 % of ctl,,118,118,109,109,,,,,,
C#CCN(C)Cc1ccccc1 [Pargyline Hydrochloride],86.4 % of ctl,86.4 % of ctl,116.9 % of ctl,116.9 % of ctl,,78.6,78.6,106,106,reduced Aβ1-40,,,,,
CNC1(C)C2CCC(C2)C1(C)C (stereo not shown) [Mecamylamine Hydrochloride],114.9 % of ctl,114.9 % of ctl,97.0 % of ctl,97.0 % of ctl,,124,124,130,130,,,,,,
CC(C)(Oc1ccc(CCNC(=O)c2ccc(Cl)cc2)cc1)C(=O)O [BENZAFIBRATE],,,,,,,,,,,,107.2 % of ctl,107.2 % of ctl,99.5 % of ctl,99.5 % of ctl
CC(C)(C)NCC(O)c1ccccc1Cl (stereo not shown) [Tulobuterol],,,,,,95.5,95.5,,,,,,,,
CC[C@@H](C)C(=O)O[C@H]1[C@H](O)[C@H]2[C@@H](CN3C[C@@H](C)CC[C@H]3[C@@]2(C)O)[C@@H]2C[C@]34O[C@]5(O)[C@@H](OC(=O)[C@@](C)(O)CC)CC[C@@]3(C)[C@@H]5[C@@H](OC(C)=O)[C@@H](OC(C)=O)[C@H]4[C@@]21O [Protoveratrine A],,,,,,,,,,,,91.7 % of ctl,91.7 % of ctl,104.6 % of ctl,104.6 % of ctl
